From US20090312380A1, “NOVEL COMPOSITIONS AND METHODS” (priority 2006, published 2009)

Legend:
[1] = Water surface area from GVS data, BET model; type: physicochemical; details: for Water Surface Area (WSA): BET adsorption model, GVS adsorption runs; for water surface area (ranking): Table 6, compared to samples B or C; for surface hydrophilicity group predicted from the WSA data: WSA data of Table 6 (ESW and BET); for number of hydrophilic domains: from ESW and BET water surface areas and GVS results; for WSA compared with SSA: water surface area versus specific surface area (nitrogen)
From the text: The multilayer sorption model according to Brunauer, Emmet and Teller Journal of the American Chemical Society, vol. 60, pp. 309, 1938) is described as follows:
with: n=number of moles adsorbed at p/p, (=RH/100) • nmono=apparent number of moles adsorbed in monolayer • p/ps=gas partial pressure (=RH/100 in the GVS experiments) • C=BET constant (measure for the strength of the sorption interaction)
From the sorption kinetics, the equilibrium weight changes at the end of each RH stage are extracted to compile xy-data pairs (RH vs. adsorbed amount).
From this, a plot of [p/ps]/[n(1−p/ps)] versus p/ps should give a linear correlation with intercept b=1/[C(nmono)] and slope m=b(C−1).
Evaluation is done by using 5-7 data points (RH vs. adsorbed amount) in the RH range 5-30% RH, which are then used for linear regression to obtain the intercept b and slope m (as explained above). The data is considered acceptable, if the correlation coefficient (r^2) of the linear regression is >0.95, although a correlation coefficient of ≧0.99 should be obtainable for most data sets. From slope and intercept, one can calculate the BET constant C and apparent monolayer amount nmono.
(§1) The calculated monolayer coverage nmono obtained from the application of the gas sorption models to GVS data can be re-calculated to water surface area Awater, taking into account the mean cross sectional area aH2O occupied by one water molecule upon adsorption:
(§2) with: Awater=water surface area [m^2/g] • aH2O mean cross sectional area of one water molecule adsorbed 10^−19 m^2/molecule • nmono=apparent amount adsorbed in the monolayer [mol] • NL=Lochschmidt number=6×10^23 molecules/mol • mdry (sample)=dry mass of sample [g]
The determination of the BET water surface area is illustrated for sample A as follows. From the relative humidity data and the mass difference, p/ps and [p/ps]/[n(1−p/ps)] were calculated to give the values shown in Table 4.
A plot of p/ps versus [p/ps]/[n(1−p/ps)] was then generated (see FIG. 2) allowing the slope (m=26.726) and the intercept (b=3.8219) to be calculated. Using the equations b=1/[C(nmono)] and m=b(C−1), the apparent monolayer amount, n^mono, was calculated to equate to 0.0327 mg. This in turn led to a WSA of 5.9 m^2/g, using equation (A4) above, wherein mdry=18.57 mg.

[2] = Water surface area from GVS data, Excess Surface Work (ESW) model; type: physicochemical; details: for Water Surface Area (WSA): ESW adsorption model, GVS adsorption runs
Protocol: The xy-data pairs used for the sorption isotherms (mRH, RH-levels) can also be used for a different approach to describe the sorption isotherm. Here, the change in chemical potential Δμ for the sorption process at each relative humidity (and at temperature T) is calculated:
with: R=Universal Gas Constant • T=Temperature • p=water partial pressure at humidity RH and temperature T • ps=water vapour saturation pressure at temperature T
Based on the change in chemical potential Δμ, an energetic term φ can be calculated for each relative humidity, termed excess surface work (ESW) according to J. Adolphs and M. J. Setzer, Journal of Colloid and Interface Science, vol. 180, pp. 70-76, 1996:
with: Φ=excess surface work • Δμ=change in chemical potential • nads=number of moles of water adsorbed in equilibrium at humidity RH
A plot of Φ/RT vs. nads can then be generated, to allow the value of nads at the minimum value of Φ/RT to be deduced. This value of nads corresponds to nmono.
as §1, §2
Likewise, the determination of the ESW water surface area is illustrated for sample A as follows.
A plot of Φ/RT versus the change in mass for sample A was then generated (see FIG. 3). From this, it could be deduced that the minimum value of Φ/RT corresponded to a change in mass of 0.0369 mg, the apparent monolayer amount. This is turn equated to a WSA of 6.65 m^2/g, using equation (A4) above, wherein mdry=18.57 mg.

Water Surface Area (WSA) [1] [m^2/g]	Water Surface Area (WSA) ([1]; listed as sample A) [m^2/g]	apparent monolayer amount nmono ([1]; BET model, mdry=18.57 mg) [mg]	water surface area (ranking) [1]	surface hydrophilicity group predicted from the WSA data [1]	WSA compared with SSA [1]	Water Surface Area (WSA) [2] [m^2/g]	Water Surface Area (WSA) ([2]; listed as sample A) [m^2/g]	apparent monolayer amount (change in mass at minimum of Φ/RT) ([2]; ESW model, mdry=18.57 mg) [mg]	SMILES	number of hydrophilic domains [1]
5.9	5.9	0.0327	largest water surface areas	relatively hydrophilic	greater than the SSA	6.7	6.65	0.0369	CCCCC1=NC2(CCCC2)C(=O)N1Cc1ccc(-c2ccccc2-c2nnn[nH]2)cc1 [Sample A, irbesartan]	approximately twice the number of hydrophilic domains
3.2				relatively hydrophobic		3.0			CCCCC1=NC2(CCCC2)C(=O)N1Cc1ccc(-c2ccccc2-c2nnn[nH]2)cc1 [Sample B, irbesartan]	approximately a similar number of hydrophilic domains as each other
3.6				relatively hydrophobic	greater than the SSA	4.3			CCCCC1=NC2(CCCC2)C(=O)N1Cc1ccc(-c2ccccc2-c2nnn[nH]2)cc1 [Sample C, irbesartan]	approximately a similar number of hydrophilic domains as each other
6.5			largest water surface areas	relatively hydrophilic	greater than the SSA	6.5			CCCCC1=NC2(CCCC2)C(=O)N1Cc1ccc(-c2ccccc2-c2nnn[nH]2)cc1 [Sample D, irbesartan]	approximately twice the number of hydrophilic domains
